From ChEMBL document CHEMBL1201862, “PubChem BioAssay data set” (2004)
Calls of active or inactive are those of the source.

Assays:
[1] = test system: HEK293; assay: cells; format: functional, cell-based; details: Homo sapiens
[2] = test system: HEK293; assay: cells; format: functional, cell-based; details: Homo sapiens; remark: listed apart in the source
[3] = test system: HEK293; assay: cells; details: Homo sapiens
[4] = test system: HEK293; assay: NOD2 signaling inhibitors in MDP-stimulated cells, cell-based, uHTS, luminescence (AID 2001); format: functional; details: Homo sapiens
[5] = biological target: Nucleotide-binding oligomerization domain-containing protein 2 (Homo sapiens, UniProt Q9HC29); assay: NOD2 signaling inhibitors, cell-based, luminescence, uHTS, HEK293 (AID 1566); format: functional
[6] = biological target: Tumor necrosis factor (Homo sapiens, UniProt P01375); assay: TNFa-triggered NF-kB activation inhibitors, SAR follow-up, cell-based, revised (AID 2337); format: functional
[7] = test system: HEK293; assay: cells; format: functional, cell-based; details: Homo sapiens; remark: listed apart in the source
[8] = biological target: Nucleotide-binding oligomerization domain-containing protein 1 (Homo sapiens, UniProt Q9Y239); assay: NOD1 signaling inhibitors, SAR follow-up, revised (AID 2333); format: functional
[9] = test system: HEK293; assay: NOD1 signaling inhibitors, primary screen, cell-based, luminescence, uHTS (AID 1578); format: functional; details: Homo sapiens
[10] = biological target: Intestinal-type alkaline phosphatase (Mus musculus, UniProt P24822); assay: PubChem AID 488874; format: functional
[11] = biological target: T1, Alkaline phosphatase, tissue-nonspecific isozyme (Homo sapiens, UniProt P05186); assay: TNAP enzyme activators, dose response, selectivity assay for human IAP activator project, biochemical, TNAP isozyme, human IAP uHTS hits (AID 488886); format: functional;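 also: potency of compounds raising TNAP activity as a selectivity check on IAP activators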
T1 sequence (P05186 whole entry): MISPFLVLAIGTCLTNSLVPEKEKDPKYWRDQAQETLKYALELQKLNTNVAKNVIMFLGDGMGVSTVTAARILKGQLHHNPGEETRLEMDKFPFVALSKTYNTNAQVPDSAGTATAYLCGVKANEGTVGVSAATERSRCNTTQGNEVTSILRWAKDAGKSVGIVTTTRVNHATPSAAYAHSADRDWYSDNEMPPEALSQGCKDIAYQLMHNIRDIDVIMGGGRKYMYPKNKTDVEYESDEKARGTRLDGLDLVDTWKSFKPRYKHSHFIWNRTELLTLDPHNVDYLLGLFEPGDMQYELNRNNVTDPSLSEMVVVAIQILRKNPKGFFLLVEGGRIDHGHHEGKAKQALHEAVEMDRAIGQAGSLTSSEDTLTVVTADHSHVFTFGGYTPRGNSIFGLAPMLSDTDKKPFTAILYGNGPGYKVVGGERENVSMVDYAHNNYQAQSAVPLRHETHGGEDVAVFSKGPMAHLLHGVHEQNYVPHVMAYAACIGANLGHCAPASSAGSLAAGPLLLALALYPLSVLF

[12] = biological target: T2, Intestinal-type alkaline phosphatase (Homo sapiens, UniProt P09923); assay: human intestinal alkaline phosphatase activators, dose response, biochemical, luminescence, uHTS hits (AID 463120); format: functional
[13] = biological target: T2, Intestinal-type alkaline phosphatase; assay: human IAP activators, dose response, biochemical, luminescent, uHTS hits, set 2 (AID 488817); format: functional;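 also: potency of activators that raise enzyme activity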
[14] = cytotoxicity in HMLE control line with eGFP shRNA, dose response, counter-screen for HMLE_sh_ECad selective toxicity project, cell-based, HMLE_sh_eGFP, luminescence (AID 463074); format: functional, Homo sapiens;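 also: HMLE human mammary epithelial cells expressing control shRNA against eGFP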
[15] = inhibitors of Bluetongue virus cytopathic effect, confirmation, arbovirus, BSR cells (AID 1250); format: functional;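 also: protection from viral cytopathic effect measured as cell viability by ATP luminescence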
[16] = biological target: T3, Corticotropin-releasing factor receptor 2/Corticotropin-releasing factor-binding protein (Homo sapiens, UniProt P24387+Q13324); assay: activators of CRF receptor 2 with binding protein – uHTS hits, confirmation (AID 602473); format: functional; details: read-out: EC50_Mean
T3 sequence (Q13324 whole entry): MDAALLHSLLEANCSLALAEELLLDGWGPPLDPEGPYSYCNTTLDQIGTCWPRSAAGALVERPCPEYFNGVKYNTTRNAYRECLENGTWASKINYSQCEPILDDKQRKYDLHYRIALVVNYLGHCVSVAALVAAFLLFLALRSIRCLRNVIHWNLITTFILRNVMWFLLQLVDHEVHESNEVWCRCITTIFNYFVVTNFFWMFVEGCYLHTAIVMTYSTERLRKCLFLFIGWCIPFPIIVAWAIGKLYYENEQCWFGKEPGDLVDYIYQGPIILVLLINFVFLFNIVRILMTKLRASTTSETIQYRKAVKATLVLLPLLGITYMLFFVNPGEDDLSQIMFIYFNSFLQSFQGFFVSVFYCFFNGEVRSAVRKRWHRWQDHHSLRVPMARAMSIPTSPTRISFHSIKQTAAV
T3 sequence (P24387 whole entry): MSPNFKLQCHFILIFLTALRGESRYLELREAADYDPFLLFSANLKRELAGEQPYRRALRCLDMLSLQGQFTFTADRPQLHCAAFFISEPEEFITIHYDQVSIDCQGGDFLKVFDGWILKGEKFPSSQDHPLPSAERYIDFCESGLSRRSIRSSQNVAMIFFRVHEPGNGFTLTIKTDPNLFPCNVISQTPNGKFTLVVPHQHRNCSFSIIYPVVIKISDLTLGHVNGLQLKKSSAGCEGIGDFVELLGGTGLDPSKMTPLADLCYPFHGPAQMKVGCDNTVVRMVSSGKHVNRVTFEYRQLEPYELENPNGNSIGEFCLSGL

[17] = biological target: T3, Corticotropin-releasing factor receptor 2/Corticotropin-releasing factor-binding protein; assay: Dose Response confirmation of uHTS hits for small molecule antagonists of the CRF-binding protein and CRF-R2 receptor complex.; format: functional; details: read-out: IC50_Mean
[18] = biological target: T4, Heat shock factor protein 1 (Mus musculus, UniProt P38532); assay: inhibition of MG132-induced HSE-luciferase signal, confirmation, cell-based, NIH3T3, luminescence, dose retest (AID 2382); format: functional;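 also: NIH3T3 fibroblasts with HSF1-driven luciferase reporter stressed by proteasome inhibitor MG132; luminescence from HSF1-driven luciferase expression after 8 hours of MG132 stress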
T4 sequence (P38532 whole entry): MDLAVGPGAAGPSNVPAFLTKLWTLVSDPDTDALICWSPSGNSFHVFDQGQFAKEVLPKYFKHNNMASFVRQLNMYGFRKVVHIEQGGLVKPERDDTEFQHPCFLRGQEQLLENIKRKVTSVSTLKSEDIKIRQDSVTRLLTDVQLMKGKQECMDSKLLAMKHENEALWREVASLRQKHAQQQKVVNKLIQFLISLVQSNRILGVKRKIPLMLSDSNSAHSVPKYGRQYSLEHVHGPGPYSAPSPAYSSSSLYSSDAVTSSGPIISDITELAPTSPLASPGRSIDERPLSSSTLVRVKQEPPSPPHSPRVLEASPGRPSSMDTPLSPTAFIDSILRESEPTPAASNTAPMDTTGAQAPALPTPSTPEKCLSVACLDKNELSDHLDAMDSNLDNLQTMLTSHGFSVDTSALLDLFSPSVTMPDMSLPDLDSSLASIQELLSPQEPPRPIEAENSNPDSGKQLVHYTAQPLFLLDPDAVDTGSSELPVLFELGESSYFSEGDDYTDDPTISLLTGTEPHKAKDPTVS

[19] = Luminescence Cell-Based Dose Retest to Confirm Inhibitors of Cancer Stem Cells. [Related pubchem assays (depositor defined):AID2717, AID2721]; format: functional; details: Homo sapiens
[20] = CRF-BP/CRF-R2 complex antagonists, dose response, cell-based, uHTS hits, 384-well (AID 651639); format: functional, Homo sapiens; details: read-out: IC50_Mean
[21] = biological target: T5, Delta-type opioid receptor (Homo sapiens, UniProt P41143); assay: HTS Image-Based Screen for Antagonists of the DOR Receptor. [Related pubchem assays (depositor defined):AID1777, AID1785, AID1786, AID2133]; format: functional
[22] = biological target: T5, Delta-type opioid receptor; assay: HTS Image-Based Screen for Agonists of the DOR Receptor. [Related pubchem assays (depositor defined):AID1777, AID1786, AID2133]; format: functional
[23] = biological target: T6, Kappa-type opioid receptor (Homo sapiens, UniProt P41145); format: functional
[24] = biological target: T7, Mu-type opioid receptor (Homo sapiens, UniProt P35372); assay: HTS Image-Based Screen for Agonists of the MOR Receptor. [Related pubchem assays (depositor defined):AID1777, AID1785, AID1786, AID2133]; format: functional
[25] = biological target: Beta-galactosidase (Escherichia coli, UniProt Q8VNN2); format: functional
[26] = biological target: T6, Kappa-type opioid receptor; format: functional; remark: listed apart in the source
[27] = biological target: UDP-galactopyranose mutase (Mycobacterium tuberculosis, UniProt P9WIQ1); assay: Inhibitors of Mycobacterium tuberculosis UDP-galactopyranose mutase (UGM) enzyme Measured in Biochemical System Using Plate Reader - 2105-02_Inhibitor_Dose_CherryPick_Activity. [Related pubchem assays (depositor defined):AID504439]
[28] = biological target: T7, Mu-type opioid receptor; assay: SAR Analysis of Antagonists of the MOR Receptor using an Image-Based Assay - Set 2. [Related pubchem assays (depositor defined):AID1777, AID1785, AID1786, AID1966, AID2133, AID2136, AID2284, AID2285, AID2420]; format: functional
[29] = biological target: T7, Mu-type opioid receptor; assay: SAR Analysis of Agonists of the MOR Receptor using an Image-Based Assay - Set 2. [Related pubchem assays (depositor defined):AID1777, AID1785, AID1786, AID1966, AID2133, AID2136, AID2284, AID2285, AID2352]; format: functional
[30] = biological target: T5, Delta-type opioid receptor; assay: SAR Analysis of Antagonists of the DOR Receptor using an Image-Based Assay - Set 2. [Related pubchem assays (depositor defined):AID1777, AID1785, AID1786, AID1966, AID2133, AID2136, AID2284, AID2285, AID2357]; format: functional
[31] = biological target: T5, Delta-type opioid receptor; assay: SAR Analysis of Agonists of the DOR Receptor using an Image-Based Assay - Set 2. [Related pubchem assays (depositor defined):AID1777, AID1785, AID1786, AID1966, AID2133, AID2136, AID2284, AID2285, AID2370]; format: functional

T5 sequence (P41143 whole entry): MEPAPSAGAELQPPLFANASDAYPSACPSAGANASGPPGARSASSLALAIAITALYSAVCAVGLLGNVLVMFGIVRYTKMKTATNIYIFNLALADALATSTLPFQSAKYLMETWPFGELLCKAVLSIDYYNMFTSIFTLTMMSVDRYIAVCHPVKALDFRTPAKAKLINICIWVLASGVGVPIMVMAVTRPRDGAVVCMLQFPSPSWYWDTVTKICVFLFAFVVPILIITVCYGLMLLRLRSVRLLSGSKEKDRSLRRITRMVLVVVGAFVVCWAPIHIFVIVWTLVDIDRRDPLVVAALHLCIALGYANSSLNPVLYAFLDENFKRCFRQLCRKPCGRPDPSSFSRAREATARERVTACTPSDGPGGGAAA
T7 sequence (P35372 whole entry): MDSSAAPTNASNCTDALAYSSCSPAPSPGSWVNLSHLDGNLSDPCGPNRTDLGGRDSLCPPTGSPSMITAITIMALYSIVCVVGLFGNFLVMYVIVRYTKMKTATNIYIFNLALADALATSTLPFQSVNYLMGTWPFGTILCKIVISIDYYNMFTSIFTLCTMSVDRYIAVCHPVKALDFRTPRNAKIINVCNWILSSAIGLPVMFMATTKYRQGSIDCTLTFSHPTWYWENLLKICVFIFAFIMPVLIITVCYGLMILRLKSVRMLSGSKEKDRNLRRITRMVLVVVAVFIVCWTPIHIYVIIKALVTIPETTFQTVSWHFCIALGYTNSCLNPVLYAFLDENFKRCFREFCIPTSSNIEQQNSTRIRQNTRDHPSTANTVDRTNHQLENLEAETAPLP
T6 sequence (P41145 whole entry): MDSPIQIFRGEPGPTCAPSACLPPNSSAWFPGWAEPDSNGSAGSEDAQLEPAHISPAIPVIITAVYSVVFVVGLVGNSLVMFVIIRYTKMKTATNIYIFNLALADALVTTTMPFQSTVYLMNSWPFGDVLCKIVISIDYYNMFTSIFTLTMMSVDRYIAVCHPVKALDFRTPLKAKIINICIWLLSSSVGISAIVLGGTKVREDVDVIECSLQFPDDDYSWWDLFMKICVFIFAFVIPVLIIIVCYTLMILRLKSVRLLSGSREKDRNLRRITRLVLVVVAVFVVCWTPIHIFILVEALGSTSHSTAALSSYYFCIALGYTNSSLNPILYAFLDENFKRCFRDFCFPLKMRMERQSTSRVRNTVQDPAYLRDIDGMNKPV
T2 sequence (P09923 whole entry): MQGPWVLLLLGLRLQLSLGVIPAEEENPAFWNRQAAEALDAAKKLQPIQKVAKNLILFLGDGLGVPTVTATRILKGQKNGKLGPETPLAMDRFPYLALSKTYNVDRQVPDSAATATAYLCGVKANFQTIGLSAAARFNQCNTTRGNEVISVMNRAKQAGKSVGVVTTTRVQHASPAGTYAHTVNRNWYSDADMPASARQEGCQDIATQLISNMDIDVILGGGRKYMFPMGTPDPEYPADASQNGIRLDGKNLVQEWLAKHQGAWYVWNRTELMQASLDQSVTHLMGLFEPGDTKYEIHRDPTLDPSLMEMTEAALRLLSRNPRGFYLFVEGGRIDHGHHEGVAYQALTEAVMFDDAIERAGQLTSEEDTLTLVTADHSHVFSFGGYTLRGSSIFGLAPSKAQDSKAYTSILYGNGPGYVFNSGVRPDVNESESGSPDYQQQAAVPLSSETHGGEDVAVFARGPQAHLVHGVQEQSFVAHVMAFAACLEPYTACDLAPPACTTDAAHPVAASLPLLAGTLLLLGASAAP
Sequence of UDP-galactopyranose mutase (P9WIQ1 whole entry): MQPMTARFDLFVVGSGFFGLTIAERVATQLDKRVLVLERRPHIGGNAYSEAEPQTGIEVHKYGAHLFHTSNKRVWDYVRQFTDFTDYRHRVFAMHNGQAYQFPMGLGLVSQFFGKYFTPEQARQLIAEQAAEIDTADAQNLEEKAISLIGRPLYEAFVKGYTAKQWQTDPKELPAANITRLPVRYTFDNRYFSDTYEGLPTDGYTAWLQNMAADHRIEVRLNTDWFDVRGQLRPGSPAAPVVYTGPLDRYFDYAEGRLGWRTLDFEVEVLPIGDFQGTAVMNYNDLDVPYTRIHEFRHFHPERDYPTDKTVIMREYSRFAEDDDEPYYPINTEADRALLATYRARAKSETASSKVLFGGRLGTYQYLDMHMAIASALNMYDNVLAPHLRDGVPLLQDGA
Sequence of Nucleotide-binding oligomerization domain-containing protein 2 (Q9HC29 whole entry, the tested form may be a part): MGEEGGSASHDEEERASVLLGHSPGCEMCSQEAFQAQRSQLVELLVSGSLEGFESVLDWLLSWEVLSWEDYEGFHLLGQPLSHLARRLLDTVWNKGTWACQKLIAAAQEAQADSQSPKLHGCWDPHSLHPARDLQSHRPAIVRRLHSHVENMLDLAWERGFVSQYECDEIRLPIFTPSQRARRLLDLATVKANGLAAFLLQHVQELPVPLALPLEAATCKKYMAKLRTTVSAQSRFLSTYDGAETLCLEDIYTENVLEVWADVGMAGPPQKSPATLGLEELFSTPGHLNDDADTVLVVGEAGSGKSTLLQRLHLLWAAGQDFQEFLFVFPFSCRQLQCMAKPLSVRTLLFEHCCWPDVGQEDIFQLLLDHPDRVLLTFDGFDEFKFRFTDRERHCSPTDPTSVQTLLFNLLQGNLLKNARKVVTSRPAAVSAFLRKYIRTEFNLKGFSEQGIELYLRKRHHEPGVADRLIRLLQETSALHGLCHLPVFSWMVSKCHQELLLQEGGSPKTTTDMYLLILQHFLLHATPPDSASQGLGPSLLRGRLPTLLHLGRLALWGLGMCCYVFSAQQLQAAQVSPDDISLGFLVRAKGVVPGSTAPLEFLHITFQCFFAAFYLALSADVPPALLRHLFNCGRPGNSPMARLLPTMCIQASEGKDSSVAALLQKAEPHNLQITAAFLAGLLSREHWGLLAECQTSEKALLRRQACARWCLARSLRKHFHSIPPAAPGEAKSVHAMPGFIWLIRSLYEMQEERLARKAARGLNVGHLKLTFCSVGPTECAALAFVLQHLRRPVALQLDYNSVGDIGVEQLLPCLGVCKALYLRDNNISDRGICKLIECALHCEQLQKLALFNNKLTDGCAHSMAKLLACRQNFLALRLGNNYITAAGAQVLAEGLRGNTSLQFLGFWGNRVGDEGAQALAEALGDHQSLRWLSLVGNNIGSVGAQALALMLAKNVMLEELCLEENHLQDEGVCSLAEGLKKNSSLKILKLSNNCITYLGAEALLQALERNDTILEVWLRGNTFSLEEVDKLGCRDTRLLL
Sequence of Nucleotide-binding oligomerization domain-containing protein 1 (Q9Y239 whole entry, the tested form may be a part): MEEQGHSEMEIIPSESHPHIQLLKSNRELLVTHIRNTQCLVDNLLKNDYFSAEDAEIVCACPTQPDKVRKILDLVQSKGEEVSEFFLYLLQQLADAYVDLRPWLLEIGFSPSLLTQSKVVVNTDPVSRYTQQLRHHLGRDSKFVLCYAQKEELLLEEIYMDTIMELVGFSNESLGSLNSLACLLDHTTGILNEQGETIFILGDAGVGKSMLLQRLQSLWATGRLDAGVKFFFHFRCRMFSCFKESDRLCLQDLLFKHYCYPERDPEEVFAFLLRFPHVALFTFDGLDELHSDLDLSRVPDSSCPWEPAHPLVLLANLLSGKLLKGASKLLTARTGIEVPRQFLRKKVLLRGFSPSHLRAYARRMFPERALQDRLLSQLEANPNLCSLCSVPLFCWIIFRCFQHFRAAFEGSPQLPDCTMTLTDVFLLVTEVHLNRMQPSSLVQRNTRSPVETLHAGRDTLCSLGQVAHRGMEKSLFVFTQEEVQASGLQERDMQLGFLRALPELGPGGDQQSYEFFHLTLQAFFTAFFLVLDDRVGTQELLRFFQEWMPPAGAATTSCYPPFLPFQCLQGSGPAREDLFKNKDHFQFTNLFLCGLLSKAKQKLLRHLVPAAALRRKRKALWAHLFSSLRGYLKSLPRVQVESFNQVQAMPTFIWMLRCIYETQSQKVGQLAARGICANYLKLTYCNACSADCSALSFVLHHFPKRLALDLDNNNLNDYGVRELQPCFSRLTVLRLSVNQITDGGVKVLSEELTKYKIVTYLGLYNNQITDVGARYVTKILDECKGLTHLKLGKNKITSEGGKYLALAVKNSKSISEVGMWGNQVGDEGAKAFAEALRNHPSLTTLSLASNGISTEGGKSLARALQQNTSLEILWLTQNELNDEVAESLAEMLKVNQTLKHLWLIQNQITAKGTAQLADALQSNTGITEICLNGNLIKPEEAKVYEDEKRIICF
Sequence of Tumor necrosis factor (P01375 whole entry): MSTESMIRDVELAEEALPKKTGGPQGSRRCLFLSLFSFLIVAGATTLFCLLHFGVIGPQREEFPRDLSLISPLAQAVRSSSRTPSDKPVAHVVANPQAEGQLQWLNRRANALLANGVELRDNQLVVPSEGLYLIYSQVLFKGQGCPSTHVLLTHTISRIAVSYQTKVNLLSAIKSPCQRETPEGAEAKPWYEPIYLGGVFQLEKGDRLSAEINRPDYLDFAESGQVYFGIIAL
Sequence of Intestinal-type alkaline phosphatase (Mus musculus, UniProt P24822) (P24822 whole entry): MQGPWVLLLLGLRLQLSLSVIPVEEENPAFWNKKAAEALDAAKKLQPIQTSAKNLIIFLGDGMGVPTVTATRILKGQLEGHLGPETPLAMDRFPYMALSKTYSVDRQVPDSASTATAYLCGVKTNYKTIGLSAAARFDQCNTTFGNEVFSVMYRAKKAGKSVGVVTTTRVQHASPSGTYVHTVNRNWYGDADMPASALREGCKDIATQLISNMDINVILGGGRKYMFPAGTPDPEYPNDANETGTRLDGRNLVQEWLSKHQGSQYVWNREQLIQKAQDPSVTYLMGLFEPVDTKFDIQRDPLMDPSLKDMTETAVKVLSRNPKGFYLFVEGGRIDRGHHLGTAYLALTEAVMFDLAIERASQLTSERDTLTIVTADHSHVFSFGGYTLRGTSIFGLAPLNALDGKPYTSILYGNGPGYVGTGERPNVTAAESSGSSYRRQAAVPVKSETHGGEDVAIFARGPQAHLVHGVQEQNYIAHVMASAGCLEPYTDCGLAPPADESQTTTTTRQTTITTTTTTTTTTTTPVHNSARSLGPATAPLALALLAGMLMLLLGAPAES

Question: Which IC50 [1] does the source give for O=C(/C=C/c1cccs1)Nc1sc2c(c1C(=O)O)CCCC2 here?
Answer: > 20 µM (inactive)

Question: And the IC50 [2]?
Answer: > 20 µM (inactive)

Question: And the IC50 [3]?
Answer: > 20 µM (inactive)

Question: And the IC50 [4]?
Answer: > 20 µM (inactive)

Question: And the EC50 [5]?
Answer: > 20 µM (inactive)

Question: And the IC50 [6]?
Answer: > 20 µM (inactive)

Question: And the IC50 [7]?
Answer: > 20 µM (inactive)

Question: What about the IC50 [8] of the same compound?
Answer: 6.42 µM (active)

Question: What about the EC50 [9] of the same compound?
Answer: 8.28 µM (active)

Question: With CSCCC(NS(=O)(=O)c1ccccc1F)C(=O)NNC(=O)c1csc(N2CCOCC2)n1 (stereo unspecified) as the compound, how does the IC50 [10] read?
Answer: 70.1 µM (active)

Question: And the EC50 [11]?
Answer: 26.4 µM (active)

Question: What about the EC50 [12] of the same compound?
Answer: 8.88 µM (active)

Question: And the EC50 [13]?
Answer: 10.6 µM (active)

Question: Which AC50 [14] does the source give for CC(C)Cc1csc(NC(=O)c2ccc(F)cc2)c1C(=O)O here?
Answer: 52.3 µM (active)

Question: And the IC50 [15]?
Answer: 36.3 µM (active)

Question: What about the EC50 [16] of the same compound?
Answer: > 53 µM (inactive)

Question: What about the IC50 [17] of the same compound?
Answer: 10.3 µM (active)

Question: And the EC50 [18]?
Answer: 9.87 µM (active)

Question: And the AC50 [19]?
Answer: 25.9 µM (active)

Question: What about the IC50 [20] of the same compound?
Answer: > 20 µM (inactive)

Question: For CCCN(CCC)CC(O)Cn1cc(/C=C/C(=O)c2cccs2)c2ccccc21 (stereo unspecified), which IC50 [21] is on record?
Answer: > 32 µM (inactive)

Question: What about the EC50 [22] of the same compound?
Answer: > 32 µM (inactive)

Question: And the IC50 [23]?
Answer: 11.3 µM (active)

Question: And the EC50 [24]?
Answer: > 32 µM (inactive)

Question: And the EC50 [25]?
Answer: > 31.5 µM (inactive)

Question: And the IC50 [26]?
Answer: 4.14 µM

Question: For COCCCNC(=O)Cn1cc(/C=C2\C(=O)NC(=O)N(c3ccccc3F)C2=O)c2ccccc21, which AC50 [27] is on record?
Answer: 43.7 µM (active)

Question: For Clc1ccc(CSc2nnc(-c3ccccn3)n2Cc2ccco2)cc1Cl, which IC50 [28] is on record?
Answer: > 32 µM (inactive)

Question: What about the EC50 [29] of the same compound?
Answer: > 32 µM (inactive)

Question: What about the IC50 [30] of the same compound?
Answer: > 32 µM (inactive)

Question: And the EC50 [31]?
Answer: > 32 µM (inactive)
